Values quoted from earlier work as cited in US20150252306A1, “COMPOSITIONS COMPRISING A PUNGENT AGENT” (The Procter & Gamble Company, priority 2014, published 2015).

Conditions: Scoville heat units, given for comparison

With COc1cc(CNC(=O)CCCC/C=C/C(C)C)ccc1O [capsaicin] as the molecule, how does the pungency level read?
The pungency level was “about 16 000 000 SHU”.
